The values that follow come from publication PMC2993481, “Rat cytochromes P450 oxidize 3-aminobenzanthrone, a human metabolite of the carcinogenic environmental pollutant 3-nitrobenzanthrone” (Interdisciplinary Toxicology, 2010).

For orientation: IC50 means the midpoint of a concentration-inhibition curve.

For one data set, the system named is Salmonella. Further details: method as in Enya et al., [1997]; Seidel et al., [2002]; Arlt, [2005]. The settings on record: ref Enya et al., [1997]; Seidel et al., [2002]; Arlt, [2005]; cited from earlier work.
The subject of another data set is rats. Further details: method as in Seidel et al., [2002]; Arlt, [2005]; Nagy et al., [2005]. The settings on record: intratracheal instillation, ref Seidel et al., [2002], Arlt, [2005], Nagy et al.; cited from earlier work.
The subject of the next data set is CYP1A1/2. Description: Inhibition of 3-ABA oxidation by CYPs in hepatic microsomes of β-naphthoflavone-pretreated rats. The data set is classed as biochemical. The settings on record: male, Wistar, rat, liver microsomes from β-naphthoflavone-pretreated rats, pH 7.4, probe 3-ABA (5-50 µM), hepatic microsomes from rats pretreated with β-naphtoflavone (CYP1A1/2), inhibitor 0.01–0.1 mM, 37 °C.

Data set [1] concerns Control rat hepatic microsomes (CYPs). In words: Inhibition of 3-ABA oxidation by CYPs in hepatic microsomes of untreated (control) rats. The class given is biochemical. The settings on record: hepatic microsomes from control rats; inhibitor 0.01–0.1 mM, 20 min, 37 °C. The protocol: The study was conducted in accordance with the Regulations for the Care and Use of Laboratory Animals (311/1997, Ministry of Agriculture, Czech Republic), which complies with Declaration of Helsinki.

Details of data set [2]: method as in Seidel et al., [2002]. The settings on record: smoking and nonsmoking salt mining workers exposed to diesel emissions; ref Seidel et al., [2002]; cited from earlier work.
For data set [3], the system named is rat hepatic CYP enzymes in microsomes. Description: Oxidation of 3-ABA by rat hepatic microsomes, metabolites separated by HPLC. The data set is classed as in vitro ADME. The settings on record: NADPH, 37 °C. The protocol:
(§1) The study was conducted in accordance with the Regulations for the Care and Use of Laboratory Animals (311/1997, Ministry of Agriculture, Czech Republic), which complies with Declaration of Helsinki. Microsomes from livers of ten male untreated Wistar rats and those of rats pretreated with β-NF (Sigma, UK) and PB were prepared by the procedure described previously (Stiborová et al., [2002]). Rat liver microsomes contained 0.6 nmol CYP/mg protein. Hepatic microsomes of rats treated with β-NF and PB contained 1.3 and 1.5 nmol CYP/mg proteins, respectively.
Incubation mixtures, in a final volume of 500 µl, consisted of 100 mM potassium phosphate buffer (pH 7.4), 10 mM NADPH, 0.5 mg of microsomal protein and 5–50 µM 3-ABA (dissolved in dimethyl sulfoxide, DMSO). The reaction was initiated by adding 3-ABA. Incubations with rat microsomes were carried out at 37 °C for 5–180 minutes. Control incubations were carried out either (1) without the enzymatic system (microsomes) or (2) with microsomes and 3-ABA, but without NADPH. Then, 5 µl of 1 mM phenacetine in methanol was added as an internal standard and 3-ABA and its metabolites were extracted twice with ethyl acetate (2 × 1.5 ml). The extracts were evaporated to dryness; residues were dissolved in 30 µl of methanol and subjected to reverse-phase (RP)-HPLC to evaluate the amounts of residual 3-ABA and its metabolites. […]

The subject of data set [4] is Hepatic microsomes from rats pretreated with Phenobarbital (CYP2B). Description: Inhibition of 3-ABA oxidation by CYPs in hepatic microsomes of phenobarbital-pretreated rats. The class given is biochemical, rat. The settings on record: inhibitor 0.01–0.1 mM, 20 min, 37 °C. The protocol:
as §1
Incubation mixtures, in a final volume of 500 µl, consisted of 100 mM potassium phosphate buffer (pH 7.4), 10 mM NADPH, 0.5 mg of microsomal protein and 5–50 µM 3-ABA (dissolved in dimethyl sulfoxide, DMSO). The reaction was initiated by adding 3-ABA. Incubations with rat microsomes were carried out at 37 °C for 5–180 minutes. […]
The following chemicals were used to inhibit 3-ABA oxidation in the presence of rat hepatic microsomes: α-naphthoflavone (α-NF), which inhibits CYP1A1 and 1A2, furafylline, which inhibits CYP1A2, diamantane, an inhibitor of CYP2B, sulfophenazole, which inhibits CYP2C and diethyldithiocarbamate, which inhibits CYP2E1 (Rendic and DiCarlo, [1997]). […] After the incubation, 3-ABA and its metabolites were extracted and analyzed by HPLC as described above.

Method for CYP1A1/2: The HPLC was performed with a reversed phase column (Nucleosil 100-5 C18, Macherey-Nagel, Duren, Germany, 25 cm×4.6 mm, 5 µm) proceeded by a C-18 guard column, using isocratic elution conditions of 70% methanol in distilled water with a flow rate of 0.6 ml/min.
Inhibitors were dissolved in 7.5 µl of methanol or water (in the case of diethyldithiocarbamate), to yield final concentrations of 0.01–0.1 mM in the incubation mixtures. […] After the incubation, 3-ABA and its metabolites were extracted and analyzed by HPLC as described above.

As for `O=C1c2ccccc2-c2ccc([N+](=O)[O-])c3cccc1c23` [3-NBA, 3-nitro-7H-benz[de]anthracen-7-one], the “Mutagenic potency in the Ames Salmonella assay” value in the data set on Salmonella is listed as “extremely high mutagenic potency”. Also, the Carcinogenicity in rats result in the data set on rats was “carcinogenic in rats, causing lung tumours”. Turning to `O=c1cc(-c2ccccc2)oc2c1ccc1ccccc12` [α-naphtoflavone, α-naphthoflavone], the half-maximal inhibitory concentration (IC50) at 20 min in the data set on CYP1A1/2 was found to be 10.9 µM. Still for that read-out and setting: under `Cc1nc2c([nH]1)c(=O)n(C)c(=O)n2Cc1ccco1` [Furafylline, furafylline] stands 16.6 µM.

For `CCN(CC)C(=S)S` [DDTC, diethyldithiocarbamate], inhibition in data set [1] was half-maximal at 96.8 µM (IC50). `Nc1ccc2c3c(cccc13)C(=O)c1ccccc1-2` [3-ABA, 3-Aminobenzanthrone]: the “Concentration detected in urine” value in data set [2] is recorded as 1–143 ng/24 h urine. Further, the “Metabolites formed by oxidation in rat hepatic microsomes” value in data set [3] was “up to three metabolites”.

For `C1C2CC3C4CC5CC(C14)C(C2)C3C5` [Diamantane, diamantane], in data set [4], the IC50 stood at 0.9 µM. Take `Nc1ccc2ccc3cccc4ccc1c2c34` [1-aminopyrene]: the “Concentration detected in urine” value in data set [2] is given as 2–200 ng/24 h urine.
